The text below walks through data of ChEMBL document CHEMBL1201862, “PubChem BioAssay data set” (2004).

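In this assay, cells in 96-well plates receive the compound at five concentrations for 48 hours. Endpoints are linearly interpolated between the surrounding concentrations. Abbreviation: GI50, concentration required for 50% inhibition of growth.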 Active and inactive are the calls of the source. Cut-off read from the data, not from the text of the source: active = GI50 up to about 1.1 µM and inactive = higher.

Test systems include DMS-273; HOP-18; KM-20L2; M19-MEL; SNB-78; XF498; DLD-1; DMS-114; RXF 631.
What all share (test): NCI tumour cell line growth inhibition, 48 h

With `Fc1ccccc1C1CC(c2ccc3ccccc3c2)=Nc2ccccc2S1` (configuration not stated), the GI50 in the assay on DMS-273, in the assay with HOP-18, with KM-20L2, with M19-MEL, in the assay with SNB-78 and in the assay on XF498 was > 100 µM (inactive) each time.

On to `Cc1cccc(NC(=O)CC2C(=O)Nc3ccccc3S2(=O)=O)c1C` (configuration not stated), for which the GI50 is 49.7 µM (inactive) with DLD-1; 20.3 µM (inactive) in the assay on DMS-114; 25.8 µM (inactive) with DMS-273; 22.1 µM (inactive) with HOP-18; 39.4 µM (inactive) in the assay on KM-20L2; 32.5 µM (inactive) with M19-MEL. Besides, the GI50 in the assay with SNB-78 was 26.1 µM (inactive).

On to `C[C@]12C=CC(=O)C=C1[C@@H](F)C[C@H]1[C@@H]3CC[C@](O)(C(=O)CO)[C@@]3(C)C[C@H](O)[C@@]12F`, for which the GI50 in the assay with DLD-1 is > 100 µM (inactive); in the assay with DMS-114, > 100 µM (inactive); in the assay with DMS-273, > 100 µM (inactive); with KM-20L2 it was > 100 µM (inactive); in the assay on M19-MEL, > 100 µM (inactive); in the assay with SNB-78 it was > 84.1 µM (inactive). Further, the GI50 in the assay with XF498 is 97.7 µM (inactive).

Regarding `O=C(CSc1nnc(-c2ccc(/N=C\c3ccc(Cl)cc3)cc2)o1)Nc1ccc(Cl)cc1Cl`, the GI50 is 27.3 µM (inactive) in the assay on DLD-1; 34.3 µM (inactive) with DMS-273; 11.6 µM (inactive) in the assay on HOP-18; 37.2 µM (inactive) in the assay with KM-20L2; 31.7 µM (inactive) in the assay with M19-MEL; > 100 µM (inactive) in the assay on SNB-78. Besides, in the assay with XF498, the GI50 is 17.7 µM (inactive).

For `COc1cc2c(cc1OC)C(Cc1cc(Br)c(OC)c(OC)c1)=[N+](C)CC2`, the GI50 in the assay on DLD-1 was 80 µM (inactive); with DMS-114, 2.52 µM (inactive); with HOP-18 it was > 100 µM (inactive); with KM-20L2 it was 39.2 µM (inactive); in the assay on M19-MEL it was 56.1 µM (inactive); in the assay with SNB-78, 92.5 µM (inactive).

Turning to `C/C(=N\Nc1ccccc1)c1sc(-c2nc(C)c(/C(C)=N/Nc3ccccc3)s2)nc1C`, the GI50 in the assay with DLD-1 was 22.1 µM (inactive); in the assay with DMS-114, 11.5 µM (inactive); with DMS-273, 8.93 µM (inactive); with HOP-18, > 45 µM (inactive); with KM-20L2 it was 6.46 µM (inactive); with M19-MEL, 17.2 µM (inactive). In addition, the figures for the GI50 in the assay with SNB-78 and in the assay on XF498 were > 64.7 µM (inactive) and 45.6 µM (inactive), respectively.

For the compound `O=c1[nH]c(-c2ccccc2)nc2ccc(Cl)cc12`, the GI50 was > 100 µM (inactive) in the assay on DMS-114; 45.9 µM (inactive) in the assay on DMS-273; 29.2 µM (inactive) with KM-20L2; 54.3 µM (inactive) in the assay on M19-MEL; 93.8 µM (inactive) in the assay on SNB-78.

For `CC(O)C(C(=O)O)N(CC1(O)OCC(O)C(O)C1O)N=O` (configuration not stated), the GI50 in the assay with DLD-1, with DMS-114, in the assay with DMS-273, in the assay with KM-20L2, with M19-MEL and in the assay on RXF 631 was > 100 µM (inactive) in each case. The GI50 with SNB-78 and in the assay on XF498 was > 100 µM (inactive) in each case.

`CCCCCCCCCCCCCCCC(=O)OCC1OC(n2cc(F)c(=O)[nH]c2=O)C(N)C(O)C1O` (configuration not stated): the GI50 is 20.6 µM (inactive) with DLD-1; 18.8 µM (inactive) in the assay on DMS-114; 16.3 µM (inactive) in the assay on HOP-18; 17.2 µM (inactive) in the assay on KM-20L2; 18.7 µM (inactive) in the assay on M19-MEL; 18.9 µM (inactive) in the assay on XF498.

Turning to `COc1cc(-c2nccc3cc(OC)c(OC)cc23)ccc1O`, the GI50 in the assay with DLD-1 was 76.4 µM (inactive); with DMS-273, 43.5 µM (inactive); with HOP-18, 21.1 µM (inactive); with KM-20L2, 33.7 µM (inactive); in the assay with M19-MEL it was > 100 µM (inactive); with RXF 631, 62.4 µM (inactive). For the same compound, the GI50 with SNB-78 is > 100 µM (inactive); in the assay on XF498, 25.4 µM (inactive).

For the compound `Brc1ccccc1C1SCc2nc3ccccc3n21` (configuration not stated), the GI50 with DLD-1 is 12.7 µM (inactive); with DMS-114, 16 µM (inactive); in the assay with HOP-18 it was < 0.01 µM (active); in the assay with M19-MEL it was 15 µM (inactive); with SNB-78 it was 26.4 µM (inactive).

For `C#CCNC(=O)N(CC#C)N=O`, the GI50 in the assay on DLD-1, with DMS-114, in the assay with DMS-273, in the assay on HOP-18, with KM-20L2 and in the assay with M19-MEL was > 100 µM (inactive) throughout. The GI50 in the assay with SNB-78 and in the assay with XF498 was > 100 µM (inactive) each time.

In the case of `COc1cc(Br)c(/C=N\c2cccc3ccc(OS(=O)(=O)c4ccc([N+](=O)[O-])cc4)cc23)cc1OC`, the GI50 is > 100 µM (inactive) in the assay on DLD-1, > 100 µM (inactive) with DMS-114, > 100 µM (inactive) with M19-MEL and 34.2 µM (inactive) in the assay with SNB-78.

`Cn1c(=O)c(/N=N/c2c(=O)n(C)c(=O)n3c2[nH]c2ccccc23)c2[nH]c3ccccc3n2c1=O`: the GI50 in the assay with DLD-1 was > 100 µM (inactive); in the assay on DMS-114, 63 µM (inactive); with DMS-273, > 100 µM (inactive); in the assay on HOP-18, 24 µM (inactive); with KM-20L2, > 100 µM (inactive); with M19-MEL, > 100 µM (inactive). The GI50 with RXF 631 was 85.7 µM (inactive); in the assay on SNB-78 it was > 100 µM (inactive); with XF498, > 100 µM (inactive).

On to `O=C(NNC(=O)/C(=C/c1cccc([N+](=O)[O-])c1)NC(=O)c1ccccc1)Nc1ccc(Cl)cc1`, for which the GI50 was 12.6 µM (inactive) in the assay with DLD-1; 11.5 µM (inactive) with DMS-114; 12.9 µM (inactive) in the assay on DMS-273; 15.6 µM (inactive) in the assay with HOP-18; 17.1 µM (inactive) in the assay with KM-20L2; 15.2 µM (inactive) in the assay with M19-MEL. The GI50 was 10.2 µM (inactive) in the assay with RXF 631, 24 µM (inactive) in the assay on SNB-78 and 9.53 µM (inactive) in the assay with XF498.

Turning to `COCCCNC(=O)C1C(=O)N(CCCOC)C(=O)/C1=N\N` (configuration not stated), the GI50 with DLD-1, in the assay with DMS-114, with DMS-273, in the assay with HOP-18, in the assay on KM-20L2 and in the assay with M19-MEL was > 100 µM (inactive) in each case. The GI50 in the assay on RXF 631 and in the assay with SNB-78 was > 100 µM (inactive) each time.

For the compound `COC(=O)c1c/c(=N\NC(=O)CC(=O)Nc2ccccc2Cl)c2ccccc2o1`, the GI50 with DLD-1, with DMS-114, with DMS-273, with KM-20L2, in the assay with RXF 631 and in the assay with SNB-78 was > 100 µM (inactive) throughout. In addition, the GI50 in the assay on XF498 is > 100 µM (inactive).

In the case of `COC(=O)C1=C(C[S+]([O-])c2ccc([N+](=O)[O-])cc2[N+](=O)[O-])ON(C)C1c1ccccc1` (configuration not stated), the GI50 is 33.8 µM (inactive) in the assay with DLD-1; 27.7 µM (inactive) with DMS-114; 36.2 µM (inactive) in the assay with DMS-273; 22.6 µM (inactive) in the assay with HOP-18; 27.8 µM (inactive) in the assay on KM-20L2; 34.3 µM (inactive) in the assay on M19-MEL. The figures for the GI50 in the assay with RXF 631, in the assay on SNB-78 and with XF498 were 99.5 µM (inactive), 33.9 µM (inactive) and 37.3 µM (inactive), respectively.

In the case of `[O-][Cl+3]([O-])([O-])[O-].c1ccc(C[P+]2(c3ccccc3)CCCCC2)cc1`, the GI50 in the assay with DLD-1 is > 100 µM (inactive); with DMS-114, 48.5 µM (inactive); in the assay with DMS-273, 79.3 µM (inactive); in the assay on HOP-18, > 100 µM (inactive); in the assay on KM-20L2 it was > 100 µM (inactive); with M19-MEL, 28.8 µM (inactive). Also, the GI50 in the assay on SNB-78 was > 100 µM (inactive); in the assay on XF498, 33.6 µM (inactive).

For the compound `Cc1ccc(S(=O)(=O)NC(=O)NCCc2ccccc2)cc1`, the GI50 in the assay on DLD-1 was > 100 µM (inactive); in the assay on DMS-114, 62.1 µM (inactive); in the assay on HOP-18, > 100 µM (inactive); in the assay with KM-20L2, > 100 µM (inactive); in the assay on M19-MEL it was > 100 µM (inactive); in the assay on SNB-78, > 100 µM (inactive). For the same compound, in the assay with XF498, the GI50 is > 100 µM (inactive).
